Values joined by “and” are separate entries in the source; they are usually repeats but may differ in a detail not shown here. Identical values can stand only once.
How the values were obtained:
Assay in all cases: Caliper, Mobility shift assay off-chip
FGFR3 (human) = FGFR3 (human) (UniProt P22607)
DYRK1A (human) = DYRK1A (human) (UniProt Q13627)
[1] = tested on: ABL1 (human), P00519 [H396P]
FYN (human) = FYN (human) (UniProt P06241)
FGFR2 (human) = FGFR2 (human) (UniProt P21802)
INSR (human) = INSR (human) (UniProt P06213)
RPS6KA3 KD1 KD2 (human) = RPS6KA3 KD1 KD2 (human) (UniProt P51812)
SGK1 (human) = SGK1 (human) (UniProt O00141)
PRKD1 (human) = PRKD1 (human) (UniProt Q15139)
HCK (human) = HCK (human) (UniProt P08631)
GSK3B (human) = GSK3B (human) (UniProt P49841)
PRKCG (human) = PRKCG (human) (UniProt P05129)
PRKG1 (human) = PRKG1 (human) (UniProt Q13976)
LCK (human) = LCK (human) (UniProt P06239)
RAF1 (human) = RAF1 (human) (UniProt P04049)
ROCK2 (human) = ROCK2 (human) (UniProt O75116)
CHEK2 (human) = CHEK2 (human) (UniProt O96017)
AURKA (human) = AURKA (human) (UniProt O14965)
MAPK3 (human) = MAPK3 (human) (UniProt P27361)
PRKD2 (human) = PRKD2 (human) (UniProt Q9BZL6)
MAPK1 (human) = MAPK1 (human) (UniProt P28482)
TSSK1B (human) = TSSK1B (human) (UniProt Q9BXA7)
CAMK2B (human) = CAMK2B (human) (UniProt Q13554)
CHEK1 (human) = CHEK1 (human) (UniProt O14757)
CAMK4 (human) = CAMK4 (human) (UniProt Q16566)
FGFR1 (human) = FGFR1 (human) (UniProt P11362)

Chain of CAMK2B (human) (Q13554 whole entry, looked up): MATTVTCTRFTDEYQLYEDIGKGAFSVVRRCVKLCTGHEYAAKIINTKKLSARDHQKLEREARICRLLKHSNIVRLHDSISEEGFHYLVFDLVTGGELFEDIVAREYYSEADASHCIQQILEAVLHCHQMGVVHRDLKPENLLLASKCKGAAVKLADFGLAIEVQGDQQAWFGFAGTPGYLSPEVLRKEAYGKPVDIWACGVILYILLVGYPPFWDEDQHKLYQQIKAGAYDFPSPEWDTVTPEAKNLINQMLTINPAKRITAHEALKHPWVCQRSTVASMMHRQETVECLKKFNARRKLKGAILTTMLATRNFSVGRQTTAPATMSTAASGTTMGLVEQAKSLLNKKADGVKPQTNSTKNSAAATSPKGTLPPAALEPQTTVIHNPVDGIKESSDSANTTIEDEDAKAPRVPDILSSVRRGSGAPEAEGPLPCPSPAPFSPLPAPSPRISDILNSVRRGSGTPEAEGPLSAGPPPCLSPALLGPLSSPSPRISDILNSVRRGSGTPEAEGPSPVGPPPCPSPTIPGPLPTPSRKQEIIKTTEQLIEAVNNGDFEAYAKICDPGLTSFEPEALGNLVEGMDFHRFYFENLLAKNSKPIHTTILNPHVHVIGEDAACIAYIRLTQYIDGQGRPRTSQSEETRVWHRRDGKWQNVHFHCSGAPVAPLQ
Chain of HCK (human) (P08631 whole entry, looked up): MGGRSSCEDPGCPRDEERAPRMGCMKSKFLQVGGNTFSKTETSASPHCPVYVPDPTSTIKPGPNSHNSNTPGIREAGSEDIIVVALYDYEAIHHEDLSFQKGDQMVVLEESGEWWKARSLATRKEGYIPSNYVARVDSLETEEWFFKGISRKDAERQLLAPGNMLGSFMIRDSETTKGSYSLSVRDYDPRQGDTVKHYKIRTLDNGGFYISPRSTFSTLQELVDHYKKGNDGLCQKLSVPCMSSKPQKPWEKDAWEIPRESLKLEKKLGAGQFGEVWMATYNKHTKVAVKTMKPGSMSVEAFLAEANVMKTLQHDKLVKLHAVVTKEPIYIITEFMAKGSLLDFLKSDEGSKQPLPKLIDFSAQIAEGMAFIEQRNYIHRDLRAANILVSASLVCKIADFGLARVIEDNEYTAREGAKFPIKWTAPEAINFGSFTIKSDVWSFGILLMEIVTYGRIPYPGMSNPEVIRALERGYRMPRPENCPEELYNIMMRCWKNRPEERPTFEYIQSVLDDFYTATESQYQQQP
Chain of PRKD1 (human) (Q15139 whole entry, looked up): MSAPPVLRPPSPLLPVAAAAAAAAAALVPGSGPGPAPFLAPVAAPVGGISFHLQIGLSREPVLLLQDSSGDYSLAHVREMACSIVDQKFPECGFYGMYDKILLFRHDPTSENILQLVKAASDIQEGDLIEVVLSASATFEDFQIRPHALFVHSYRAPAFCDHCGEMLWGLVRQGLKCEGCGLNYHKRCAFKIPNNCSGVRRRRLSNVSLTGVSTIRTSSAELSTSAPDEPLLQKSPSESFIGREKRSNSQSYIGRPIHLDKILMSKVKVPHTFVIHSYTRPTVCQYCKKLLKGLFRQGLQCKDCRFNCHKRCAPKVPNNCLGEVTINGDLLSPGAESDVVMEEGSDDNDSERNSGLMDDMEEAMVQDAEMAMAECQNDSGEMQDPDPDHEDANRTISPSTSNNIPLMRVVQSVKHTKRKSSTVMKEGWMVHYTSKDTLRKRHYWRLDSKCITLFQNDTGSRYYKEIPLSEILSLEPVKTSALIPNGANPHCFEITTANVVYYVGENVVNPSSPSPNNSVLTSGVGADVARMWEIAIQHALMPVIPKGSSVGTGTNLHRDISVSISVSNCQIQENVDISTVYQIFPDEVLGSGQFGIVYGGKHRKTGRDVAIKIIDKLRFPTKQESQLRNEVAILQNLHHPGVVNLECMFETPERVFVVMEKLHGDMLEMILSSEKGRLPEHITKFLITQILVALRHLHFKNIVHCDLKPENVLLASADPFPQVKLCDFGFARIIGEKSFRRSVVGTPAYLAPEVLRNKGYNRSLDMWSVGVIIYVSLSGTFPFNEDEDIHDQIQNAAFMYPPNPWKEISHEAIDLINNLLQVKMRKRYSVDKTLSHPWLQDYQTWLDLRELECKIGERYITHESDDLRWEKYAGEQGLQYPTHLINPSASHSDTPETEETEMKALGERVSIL
Chain of LCK (human) (P06239 whole entry, looked up): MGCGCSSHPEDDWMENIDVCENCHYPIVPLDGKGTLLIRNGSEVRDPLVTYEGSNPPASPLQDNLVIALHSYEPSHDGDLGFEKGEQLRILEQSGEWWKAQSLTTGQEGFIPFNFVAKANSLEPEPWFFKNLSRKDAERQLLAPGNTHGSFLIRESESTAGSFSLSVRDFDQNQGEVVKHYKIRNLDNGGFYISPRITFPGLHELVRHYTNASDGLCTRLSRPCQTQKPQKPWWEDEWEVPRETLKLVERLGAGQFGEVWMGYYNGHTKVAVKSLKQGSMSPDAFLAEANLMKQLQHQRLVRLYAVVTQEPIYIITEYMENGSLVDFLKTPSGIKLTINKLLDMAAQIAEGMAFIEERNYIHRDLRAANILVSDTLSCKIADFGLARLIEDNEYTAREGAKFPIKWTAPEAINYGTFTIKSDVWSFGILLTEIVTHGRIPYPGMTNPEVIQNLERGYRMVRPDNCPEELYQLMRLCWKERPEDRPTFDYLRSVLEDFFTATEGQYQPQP
Chain of MAPK1 (human) (P28482 whole entry, looked up): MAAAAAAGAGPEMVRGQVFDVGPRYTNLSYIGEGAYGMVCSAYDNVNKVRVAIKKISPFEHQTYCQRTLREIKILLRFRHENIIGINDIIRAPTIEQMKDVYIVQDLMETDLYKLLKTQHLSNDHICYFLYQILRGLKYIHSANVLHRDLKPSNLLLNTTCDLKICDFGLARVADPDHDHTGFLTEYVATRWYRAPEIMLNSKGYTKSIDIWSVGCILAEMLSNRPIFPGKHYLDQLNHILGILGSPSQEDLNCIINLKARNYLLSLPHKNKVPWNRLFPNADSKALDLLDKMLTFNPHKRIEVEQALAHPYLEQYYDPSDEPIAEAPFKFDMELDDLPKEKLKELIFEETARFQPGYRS
Chain of FGFR3 (human) (P22607 whole entry, looked up): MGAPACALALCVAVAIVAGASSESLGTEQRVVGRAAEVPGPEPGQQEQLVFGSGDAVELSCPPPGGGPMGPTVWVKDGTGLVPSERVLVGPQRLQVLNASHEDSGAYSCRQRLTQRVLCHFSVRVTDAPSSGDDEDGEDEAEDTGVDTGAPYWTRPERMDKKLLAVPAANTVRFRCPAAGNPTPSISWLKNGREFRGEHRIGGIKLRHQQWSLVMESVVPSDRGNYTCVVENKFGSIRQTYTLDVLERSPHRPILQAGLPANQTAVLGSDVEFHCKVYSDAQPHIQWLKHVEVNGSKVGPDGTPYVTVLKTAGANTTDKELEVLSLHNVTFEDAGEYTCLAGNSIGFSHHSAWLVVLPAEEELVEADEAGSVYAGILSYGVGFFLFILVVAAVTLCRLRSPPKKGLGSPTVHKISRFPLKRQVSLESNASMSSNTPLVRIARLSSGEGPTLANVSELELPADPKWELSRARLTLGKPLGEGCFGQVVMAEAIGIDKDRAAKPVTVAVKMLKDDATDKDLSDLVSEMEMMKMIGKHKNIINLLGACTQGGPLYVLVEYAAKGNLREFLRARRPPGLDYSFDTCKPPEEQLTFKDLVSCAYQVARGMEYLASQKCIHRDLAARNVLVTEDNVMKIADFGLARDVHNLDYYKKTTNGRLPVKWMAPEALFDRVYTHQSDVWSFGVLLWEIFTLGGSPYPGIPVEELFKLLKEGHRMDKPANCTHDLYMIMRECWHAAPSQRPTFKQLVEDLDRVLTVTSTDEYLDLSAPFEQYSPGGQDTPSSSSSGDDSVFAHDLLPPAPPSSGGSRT
Chain of RPS6KA3 KD1 KD2 (human) (P51812 whole entry, looked up): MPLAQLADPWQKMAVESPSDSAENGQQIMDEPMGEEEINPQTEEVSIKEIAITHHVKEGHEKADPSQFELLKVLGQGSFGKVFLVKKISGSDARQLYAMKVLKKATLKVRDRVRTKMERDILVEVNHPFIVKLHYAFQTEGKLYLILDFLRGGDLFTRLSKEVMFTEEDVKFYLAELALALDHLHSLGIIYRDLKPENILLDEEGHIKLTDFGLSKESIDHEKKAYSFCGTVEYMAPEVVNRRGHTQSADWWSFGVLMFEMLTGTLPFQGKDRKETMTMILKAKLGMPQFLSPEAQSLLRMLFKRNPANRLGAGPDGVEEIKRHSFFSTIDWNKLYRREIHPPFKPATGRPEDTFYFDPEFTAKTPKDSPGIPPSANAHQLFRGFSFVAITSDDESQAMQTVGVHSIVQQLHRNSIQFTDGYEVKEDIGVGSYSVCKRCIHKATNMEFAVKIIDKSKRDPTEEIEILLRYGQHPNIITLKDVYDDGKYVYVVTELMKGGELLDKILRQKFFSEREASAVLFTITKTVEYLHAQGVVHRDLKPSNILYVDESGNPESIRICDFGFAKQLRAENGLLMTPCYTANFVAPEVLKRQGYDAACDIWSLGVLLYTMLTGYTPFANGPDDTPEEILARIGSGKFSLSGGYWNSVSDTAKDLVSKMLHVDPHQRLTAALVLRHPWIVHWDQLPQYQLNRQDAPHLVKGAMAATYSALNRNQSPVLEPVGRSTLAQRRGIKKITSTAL
Chain of AURKA (human) (O14965 whole entry, looked up): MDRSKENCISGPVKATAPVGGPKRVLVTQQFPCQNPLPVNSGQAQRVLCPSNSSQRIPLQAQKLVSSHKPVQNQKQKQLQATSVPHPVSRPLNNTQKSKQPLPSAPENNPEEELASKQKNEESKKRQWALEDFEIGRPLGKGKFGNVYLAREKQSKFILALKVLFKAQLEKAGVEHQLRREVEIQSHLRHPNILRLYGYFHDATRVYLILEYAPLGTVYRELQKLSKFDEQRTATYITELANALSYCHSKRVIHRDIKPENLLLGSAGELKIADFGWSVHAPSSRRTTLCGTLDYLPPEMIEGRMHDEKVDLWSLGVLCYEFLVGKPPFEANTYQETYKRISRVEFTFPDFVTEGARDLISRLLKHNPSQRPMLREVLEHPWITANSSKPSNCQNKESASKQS

Question: Which results are given for `Cn1cc(-c2cnc3ccc4ccc(CS(N)(=O)=O)cc4c(=O)c3c2)cn1`?
Answer: inhibition (FGFR3 (human); compound 0.1 µM): 41.1%; inhibition (FGFR3 (human); compound 1.0 µM): 57.9%; inhibition (DYRK1A (human); compound 0.1 µM): 6.2%; inhibition (DYRK1A (human); compound 1.0 µM): 32.9%; inhibition ([1]; compound 0.1 µM): -0.9%; inhibition ([1]; compound 1.0 µM): 9.4%; inhibition (FYN (human); compound 0.1 µM): -3.7%; inhibition (FYN (human); compound 1.0 µM): 6%; inhibition (FGFR2 (human); compound 0.1 µM): 21.8%; inhibition (FGFR2 (human); compound 1.0 µM): 47.9%; inhibition (INSR (human); compound 0.1 µM): 12%; inhibition (INSR (human); compound 1.0 µM): 6.4%; inhibition (RPS6KA3 KD1 KD2 (human); compound 0.1 µM): 1.2%; inhibition (RPS6KA3 KD1 KD2 (human); compound 1.0 µM): -1.7%; inhibition (SGK1 (human); compound 0.1 µM): 6.8%; inhibition (SGK1 (human); compound 1.0 µM): 11.5%; inhibition (PRKD1 (human); compound 0.1 µM): -5.2%; inhibition (PRKD1 (human); compound 1.0 µM): 0.2%; inhibition (HCK (human); compound 0.1 µM): -59.1%; inhibition (HCK (human); compound 1.0 µM): -1.6%; inhibition (GSK3B (human); compound 0.1 µM): -2.7%; inhibition (GSK3B (human); compound 1.0 µM): 9.3%; inhibition (PRKCG (human); compound 0.1 µM): -1.4%; inhibition (PRKG1 (human); compound 0.1 µM): -0.5% and 2.6%; inhibition (PRKG1 (human); compound 1.0 µM): 9.6% and -5.9%; inhibition (LCK (human); compound 0.1 µM): 2.4%; inhibition (LCK (human); compound 1.0 µM): -1.7%; inhibition (RAF1 (human); compound 0.1 µM): 6.2%; inhibition (RAF1 (human); compound 1.0 µM): -3.8%; inhibition (ROCK2 (human); compound 0.1 µM): 3%; inhibition (ROCK2 (human); compound 1.0 µM): 2%; inhibition (CHEK2 (human); compound 0.1 µM): -3.5%; inhibition (CHEK2 (human); compound 1.0 µM): 0.7%; inhibition (AURKA (human); compound 0.1 µM): 27.6%; inhibition (AURKA (human); compound 1.0 µM): 75.5%; inhibition (MAPK3 (human); compound 0.1 µM): -0.7%; inhibition (MAPK3 (human); compound 1.0 µM): 3.6%; inhibition (PRKD2 (human); compound 0.1 µM): 7.3%; inhibition (PRKD2 (human); compound 1.0 µM): -2.6%; inhibition (MAPK1 (human); compound 0.1 µM): -5.5%; inhibition (MAPK1 (human); compound 1.0 µM): 0.8%; inhibition (TSSK1B (human); compound 0.1 µM): -0.9%; inhibition (TSSK1B (human); compound 1.0 µM): 1%; inhibition (CAMK2B (human); compound 0.1 µM): -21.3%; inhibition (CAMK2B (human); compound 1.0 µM): -19.3%; inhibition (CHEK1 (human); compound 0.1 µM): -7.9%; inhibition (CHEK1 (human); compound 1.0 µM): 3.1%; inhibition (CAMK4 (human); compound 0.1 µM): -1.6%; inhibition (CAMK4 (human); compound 1.0 µM): -6.4%

Question: Which inhibition (FGFR3 (human); compound 0.1 µM) does the source give for `Cn1cc(-c2cnc3ccc4ccc(CS(=O)(=O)CCc5ccccn5)cc4c(=O)c3c2)cn1` here?
Answer: 34.5%

Question: What about the inhibition (DYRK1A (human); compound 0.1 µM) of the same compound?
Answer: -4.6%

Question: What about the inhibition (DYRK1A (human); compound 1.0 µM) of the same compound?
Answer: -2.8%

Question: What about the inhibition ([1]; compound 0.1 µM) of the same compound?
Answer: 10.6%

Question: And the inhibition ([1]; compound 1.0 µM)?
Answer: 13.9%

Question: What about the inhibition (FYN (human); compound 0.1 µM) of the same compound?
Answer: -11.5%

Question: And the inhibition (FYN (human); compound 1.0 µM)?
Answer: -2.5%

Question: And the inhibition (FGFR2 (human); compound 0.1 µM)?
Answer: 18.3%

Question: What about the inhibition (FGFR2 (human); compound 1.0 µM) of the same compound?
Answer: 64.7%

Question: And the inhibition (INSR (human); compound 0.1 µM)?
Answer: 1.4%

Question: What about the inhibition (INSR (human); compound 1.0 µM) of the same compound?
Answer: 3.5%

Question: And the inhibition (RPS6KA3 KD1 KD2 (human); compound 0.1 µM)?
Answer: -9.2%

Question: And the inhibition (RPS6KA3 KD1 KD2 (human); compound 1.0 µM)?
Answer: -1.3%

Question: What about the inhibition (SGK1 (human); compound 0.1 µM) of the same compound?
Answer: 1.7%

Question: What about the inhibition (SGK1 (human); compound 1.0 µM) of the same compound?
Answer: -6.4%

Question: What about the inhibition (PRKD1 (human); compound 0.1 µM) of the same compound?
Answer: -3.6%

Question: What about the inhibition (PRKD1 (human); compound 1.0 µM) of the same compound?
Answer: -6.6%

Question: What about the inhibition (HCK (human); compound 0.1 µM) of the same compound?
Answer: -5.1%

Question: And the inhibition (HCK (human); compound 1.0 µM)?
Answer: 1.6%

Question: What about the inhibition (FGFR1 (human); compound 0.1 µM) of the same compound?
Answer: 12.3%

Question: And the inhibition (FGFR1 (human); compound 1.0 µM)?
Answer: 61.2%

Question: And the inhibition (GSK3B (human); compound 0.1 µM)?
Answer: -3.5%

Question: What about the inhibition (GSK3B (human); compound 1.0 µM) of the same compound?
Answer: 3%

Question: And the inhibition (PRKCG (human); compound 0.1 µM)?
Answer: -2%

Question: And the inhibition (PRKCG (human); compound 1.0 µM)?
Answer: -3.4%

Question: And the inhibition (PRKG1 (human); compound 0.1 µM)?
Answer: 4.3% and 6.4%

Question: And the inhibition (PRKG1 (human); compound 1.0 µM)?
Answer: -3.3% and -9.8%

Question: What about the inhibition (LCK (human); compound 0.1 µM) of the same compound?
Answer: 9.2%

Question: And the inhibition (LCK (human); compound 1.0 µM)?
Answer: 0.5%

Question: And the inhibition (RAF1 (human); compound 0.1 µM)?
Answer: 5.1%

Question: What about the inhibition (RAF1 (human); compound 1.0 µM) of the same compound?
Answer: 1.4%

Question: And the inhibition (ROCK2 (human); compound 0.1 µM)?
Answer: -6.7%

Question: What about the inhibition (ROCK2 (human); compound 1.0 µM) of the same compound?
Answer: -5.4%

Question: What about the inhibition (CHEK2 (human); compound 0.1 µM) of the same compound?
Answer: -0.4%

Question: What about the inhibition (CHEK2 (human); compound 1.0 µM) of the same compound?
Answer: 4.5%

Question: What about the inhibition (AURKA (human); compound 0.1 µM) of the same compound?
Answer: 15.8%

Question: What about the inhibition (AURKA (human); compound 1.0 µM) of the same compound?
Answer: 48%

Question: And the inhibition (MAPK3 (human); compound 0.1 µM)?
Answer: -10.8%

Question: What about the inhibition (MAPK3 (human); compound 1.0 µM) of the same compound?
Answer: -1.3%

Question: And the inhibition (PRKD2 (human); compound 0.1 µM)?
Answer: -8.3%

Question: What about the inhibition (PRKD2 (human); compound 1.0 µM) of the same compound?
Answer: -3.5%

Question: And the inhibition (MAPK1 (human); compound 0.1 µM)?
Answer: -2.4%

Question: And the inhibition (MAPK1 (human); compound 1.0 µM)?
Answer: -1.9%

Question: And the inhibition (TSSK1B (human); compound 0.1 µM)?
Answer: 19.8%

Question: What about the inhibition (TSSK1B (human); compound 1.0 µM) of the same compound?
Answer: -1.7%

Question: What about the inhibition (CAMK2B (human); compound 0.1 µM) of the same compound?
Answer: 20.2%

Question: What about the inhibition (CHEK1 (human); compound 0.1 µM) of the same compound?
Answer: 2%

Question: What about the inhibition (CHEK1 (human); compound 1.0 µM) of the same compound?
Answer: 2.5%

Question: What about the inhibition (CAMK4 (human); compound 0.1 µM) of the same compound?
Answer: -0.1%

Question: And the inhibition (CAMK4 (human); compound 1.0 µM)?
Answer: 3.5%

Source: the kinase profiling compilation of Christmann-Franck et al. (2016)
